From US20240226066A1, “CARDIOPROTECTION BY AUTOPHAGY INDUCTION AND METABOLIC REPROGRAMMING” (UNIVERSITE PARIS-SACLAY, priority 2021, published 2024)
Read-outs that look alike come from different tables or passages of the source.

Tests used:
hERG potassium channel = molecular target: T1, hERG potassium channel (Homo sapiens, UniProt Q12809); assay: hERG channel binding assay ([3H]dofetilide displacement); settings: for inhibition at 10 µM: human, probe [3H]dofetilide
T1 construct: Eurofins
Experimental: The evaluation of the binding of the compounds to the human hERG potassium channel was carried out as described previously (Eurofins).
Since the blocking of the human potassium channel hERG channel may be responsible for cardiac fibrillation leading to cardiac arrest and death of the patient, the binding of the 3 molecules SG6163F, VP331 and LOPA87 to this receptor was evaluated.

RNVCs [1] = assay: Mitochondrial ROS production with MitoSOX fluorescent probe; assay type: cell-based, rat; settings: 1 μM, 6 h
Experimental: FIG. 12: The RNVCs were treated with 0.1% DMSO, 3 μM rapamycin, 1 μM digitoxigenin, 1 μM digoxin, 1 μM minaprin, 1 μM VP331, 1 μM LOPA87, 10 μM SG6163F for 6 h, then the ROS production was stained with the MitoSOX fluorescent probe.
The RNVCs were treated with 0.01% DMSO, 3 μM rapamycin, […], 1 μM digoxin, 1 μM minaprine, 1 μM VP331, 1 μM LOPA87, 10 μM SG6163F in a serum-free cell culture medium for 6 hours. The contents (50 μg) of a MitoSOX™ mitochondrial superoxide indicator vial (ThermoFisher, M36008) were dissolved in 13 μl dimethyl sulfoxide (DMSO) to prepare a 5 mM MitoSOX™ reagent stock solution. Next, the 5 mM MitoSOX™ reagent stock solution in PBS was diluted to prepare a 5 μM working solution of MitoSOX™ reagent. After treatment, the cells were rinsed twice with hot PBS and then incubated with a MitoSOX reagent working solution for 10 minutes at 37° C. The cells were gently rinsed three times with hot PBS. Red fluorescence was detected with a Leica confocal microscope. Nuclear fluorescence was suppressed and mitochondrial fluorescence intensity was measured using ImageJ software.
ROSs are produced or accumulated as a by-product of mitochondrial activity metabolism. Thus, the ROSs may be a consequence of mitochondrial function or may reflect a defect in the mitochondrial antioxidant system.

RNVCs [2] = assay: Mitochondrial network and cell volume by confocal microscopy (Mitotracker, calcein-AM, IMARIS); assay type: cell-based, rat; settings: for effect on the mitochondrial network / number of mitochondria: 1 and 10 μM, 6 h
Experimental: FIG. 6. Effects on mitochondrial dynamics by fluorescence microscopy The RNVCs were treated with 1 μM hits (FIG. 6A) and 10 μM hits (FIG. 6B) for 6 h and the mitochondrial network was stained with 200 nM of Mitotracker. The mitochondrial network and individual mitochondria were then analyzed using a Leica confocal microscope and IMARIS software. Data are presented as mean±SEM with single-factor ANOVA, and multiple Sidak comparisons. *, p<0.05, **, p<0.01, ***, p<0.001 with respect to DMSO.
FIG. 11: following the treatment of the RNVCs with the compounds as indicated, the cell volume was stained with 4 μM of calcein-AM. The cell volume was then analyzed using the IMARIS software.
Confocal microscopy. On day 0, 4×10^5 neonatal cardiomyocytes were plated overnight on laminin-coated 35 mm culture dishes (10 μg/ml). On day 1, the cells were treated with various compounds at 1 or 10 μM for 6 hours. The cells were incubated with Mitotracker Red 580 at 200 nM for 20 minutes at 37° C., then 4 μM of calcein (Calcein AM, Life Technologies, St Aubin, France) for 10 minutes at 37° C. The images were acquired with a Leica confocal microscope (SP5) (Mannheim, Germany). The mitochondrial network and the 3D model of cell volume were reconstructed using the IMARIS software (Bitplane Company, Zurich, Switzerland); therefore the cell volume, mitochondrial number and volume were analyzed.
Due to the importance of mitochondria and reactive oxygen species (ROS) levels in the fate of cardiomyocyte cells, the hypothesis that the compounds could impact the mitochondrial network was explored. Following treatment of the RNVCs with the compounds tested, the mitochondrial network was stained with 200 nM of Mitotracker and the cell volume with 4 μM of calcein-AM. Thus, the mitochondrial network and the individual mitochondria were then analyzed using the IMARIS software.

H9C2 cells [3] = assay: Exogenous fatty acid oxidation (XF palmitate-BSA FAO substrate with mito stress test); assay type: cell-based, rat; settings: fatty acids as substrate
Experimental: FIG. 8C: the oxidation of the exogenous fatty acids was measured simultaneously using the XF palmitate-BSA FAO substrate kit with the mito stress test on XF cells. Before starting the test, 30 μL of XF palmitate-BSA CAM or BSA control substrate were added to the appropriate wells.
The XFe96 extracellular flow analyzer (Seahorse Biosciences, North Billerica, MA, USA) was used to measure the bioenergetic function of H9C2 cardiomyocytes. The H9C2 cells were seeded at 20 000 cells per well in XF96 cell culture microplates; all the pretreatments were carried out with serum-free cell culture medium. The Agilent Seahorse XF glycolysis stress test was performed to measure glycolytic function in the H9C2 cells; the extracellular acidification rate (ECAR) was measured sequentially by 3 injections, 10 mM glucose, 2 μM oligomycin and 50 mM 2-deoxy-D-glucose (2-DG). The Agilent Seahorse XF Cell Mito stress test measured key parameters of mitochondrial function by directly measuring the oxygen consumption rate (OCR) of the H9C2 cells. […] The oxidation of the exogenous fatty acids was measured simultaneously using the XF palmitate-BSA FAO substrate kit with the mitochondrial stress test on XF cells. […]
(§1) Next, the energy metabolism was analyzed in real time using the Seahorse technology in H9C2 cells.

[4] = test system: A549 lung cancer cell line; assay: Influence of hits on growth of A549 cancer cells (total LDH after lysis); assay type: cell-based; settings: 48 h
Experimental: The cells were cultured for 6 h in the presence or absence of the hits, and then for 42 h. Finally, the cells were lysed with lysis buffer and the amount of LDH was measured to evaluate the total cell growth.
A colorimetric assay was used to measure lactate dehydrogenase (LDH), a cytosolic enzyme which is released during permeabilization of the plasma membrane (Promega G1780). The assay was performed using cell culture supernatants obtained from H9C2 or RNVC (rat neonatal ventricular myocyte) cells and lysis buffer (LB) was used as a positive control for total cell lysis. The LDH release was measured by absorbance reading at 490 nm (Infinite spectrofluorimeter, Tecan).
The effect of the compounds was then evaluated on primary rat neonatal ventricular cardiomyocytes (RNVCs) using the LDH test and propidium iodide staining. […] The absence of proliferative effects of the compounds was also evaluated on the A549 lung cancer cell line for 48 h (FIG. 2C).

H9C2 cells [5] = assay: Seahorse XF Cell Mito stress test (OCR); assay type: cell-based, rat; settings: glucose and pyruvate as substrates, 6 h
Experimental: FIG. 8B: the H9c2 cells were treated with the compounds for 6 h, then a mitochondrial respiration stress test was carried out.
The XFe96 extracellular flow analyzer (Seahorse Biosciences, North Billerica, MA, USA) was used to measure the bioenergetic function of H9C2 cardiomyocytes. The H9C2 cells were seeded at 20 000 cells per well in XF96 cell culture microplates; all the pretreatments were carried out with serum-free cell culture medium. The Agilent Seahorse XF glycolysis stress test was performed to measure glycolytic function in the H9C2 cells; the extracellular acidification rate (ECAR) was measured sequentially by 3 injections, 10 mM glucose, 2 μM oligomycin and 50 mM 2-deoxy-D-glucose (2-DG). The Agilent Seahorse XF Cell Mito stress test measured key parameters of mitochondrial function by directly measuring the oxygen consumption rate (OCR) of the H9C2 cells. The test used the built-in injection ports on XF sensor cartridges to add respiration modulators into the cell well during the test in order to reveal key parameters of mitochondrial function. Oligomycin at 2 μM was injected first after the baseline measurements. Then 1 μM of […] (FCCP) was injected. The third injection corresponds to 0.5 μM of antimycin A, to stop mitochondrial respiration. The oxidation of the exogenous fatty acids was measured simultaneously using the XF palmitate-BSA FAO substrate kit with the mitochondrial stress test on XF cells. The substrate-limited medium is DMEM with 0.5 mM glucose, 1 mM GlutaMAX, 0.5 mM carnitine and 1% fetal calf serum. Carnitine was added freshly on the day of the change of medium. The FAO test medium contains 111 mM NaCl, 4.7 mM KCl, 1.25 mM CaCl2, 2 mM MgSO4, 1.2 mM NaH2PO4, supplemented with 2.5 mM glucose, 0.5 mM carnitine and 5 mM HEPES on the day of the test, adjusted to pH 7.4 at 37° C. The H9C2 cells were seeded at 20 000 cells per well in XF96 cell culture microplates. […]
as §1

LC3II = assay: LC3 I/II conversion by western blot in RNVCs; assay type: cell-based, rat; settings: rapamycin positive control (3 μM)
Experimental: FIG. 4E: LC3-I/II protein levels in the RNVCs. Data are presented as mean±SEM with single-factor ANOVA, and multiple Sidak comparisons. *, p<0.05, **, p<0.01 with respect to DMSO.
The H9C2 cells and RNVCs were detached in LB containing: 50 mM Tris, 150 mM NaCl, 1 mM EDTA, 0.5% deoxycholate, 1% Triton X 100, 0.1% SDS (pH 8.0). The cells were collected and placed on ice for 30 minutes. The cells were then centrifuged at 2000 g for 20 minutes at for 4° C. The supernatant was transferred to a new tube and stored on ice. The protein concentration was determined by BCA assay. The protein samples were diluted with sample buffer (2× Laemmli, Sigma), mixed, and heated for 5 minutes at 95° C. […] The images were recorded with a gel imaging system (Bio Rad). […]
Next, the hypothesis that the compounds could protect cardiac cells by activating autophagy, a catabolic process conserved in evolution that involves the degradation of damaged cytoplasmic components, was formulated. […] Then, the cells were treated with the hits and with H2O2 for 2 hours and their survival was analyzed 4 hours later by measuring LDH release (FIGS. 4B, 4C). […] In order to confirm the induction of autophagy by another approach, the RNVCs were transfected with a GFP-LC3 plasmid and the formation of the autophagosome was monitored 24 hours later. […]

T1 sequence (Q12809 whole entry): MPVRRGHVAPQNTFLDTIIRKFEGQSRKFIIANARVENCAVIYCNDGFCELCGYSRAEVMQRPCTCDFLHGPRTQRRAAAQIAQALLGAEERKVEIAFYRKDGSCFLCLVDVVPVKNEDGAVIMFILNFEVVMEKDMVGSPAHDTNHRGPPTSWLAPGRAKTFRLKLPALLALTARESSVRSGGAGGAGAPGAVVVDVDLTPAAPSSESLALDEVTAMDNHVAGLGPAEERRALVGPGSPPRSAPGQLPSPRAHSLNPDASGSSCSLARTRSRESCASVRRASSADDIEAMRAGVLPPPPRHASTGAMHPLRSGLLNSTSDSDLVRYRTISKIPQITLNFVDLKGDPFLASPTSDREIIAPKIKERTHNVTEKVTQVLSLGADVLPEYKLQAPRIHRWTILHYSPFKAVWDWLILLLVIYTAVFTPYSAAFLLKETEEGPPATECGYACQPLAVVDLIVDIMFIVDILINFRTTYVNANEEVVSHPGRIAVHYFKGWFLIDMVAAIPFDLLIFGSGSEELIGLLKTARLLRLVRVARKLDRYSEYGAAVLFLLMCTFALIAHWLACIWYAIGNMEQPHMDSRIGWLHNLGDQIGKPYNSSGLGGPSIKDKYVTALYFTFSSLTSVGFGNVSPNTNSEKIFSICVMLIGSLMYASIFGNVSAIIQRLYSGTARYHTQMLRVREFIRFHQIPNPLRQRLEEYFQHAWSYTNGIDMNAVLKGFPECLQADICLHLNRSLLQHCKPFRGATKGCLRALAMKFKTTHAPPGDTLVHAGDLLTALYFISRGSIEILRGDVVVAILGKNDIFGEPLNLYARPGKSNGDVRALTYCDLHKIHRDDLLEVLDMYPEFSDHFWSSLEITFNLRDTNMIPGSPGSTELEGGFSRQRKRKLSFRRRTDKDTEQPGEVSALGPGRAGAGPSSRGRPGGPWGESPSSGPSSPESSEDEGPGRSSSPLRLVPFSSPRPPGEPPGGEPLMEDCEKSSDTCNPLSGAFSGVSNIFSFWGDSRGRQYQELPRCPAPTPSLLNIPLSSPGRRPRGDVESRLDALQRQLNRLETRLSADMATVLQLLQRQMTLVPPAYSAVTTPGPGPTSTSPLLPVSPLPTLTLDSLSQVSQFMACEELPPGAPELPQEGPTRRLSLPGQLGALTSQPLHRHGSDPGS

| SMILES | inhibition at 10 µM (hERG potassium channel; inhibition of tritiated dofetilide binding, only values >50% considered effective, read-out: % inhibit 1st assay) [%] | inhibition at 10 µM (hERG potassium channel; inhibition of tritiated dofetilide binding, only values >50% considered effective, read-out: % inhibit 2nd assay) [%] | inhibition at 10 µM (hERG potassium channel; mean of two independent measurements, read-out: % inhibit Mean) [%] | binding to the hERG channel (hERG potassium channel; inhibition of specific binding of [3H]dofetilide in vitro) | local level of mitochondrial superoxide anion (RNVCs [1]) | effect on the mitochondrial network (RNVCs [2]) | number of mitochondria (RNVCs [2]) | oxidative phosphorylation (H9C2 cells [3]) | effect on A549 cell growth [4] | ATP production by oxidative phosphorylation (OXPHOS) (H9C2 cells [5]) | mitochondrial mass (RNVCs [2]; 10 μM) | increase in level of expression of LC3II (LC3II) [fold] |
| --- | --- | --- | --- | --- | --- | --- | --- | --- | --- | --- | --- | --- |
| COc1ccc(C)cc1/C=N/[C@@H]1C[C@@H]2C[C@H]([C@H]1C)C2(C)C [VP331] | -4 | 5.4 | 0.7 | negligible | induced an elevation | no effect | no effect | improved oxidative phosphorylation | no proliferative effect | – | – | – |
| Cc1cc(-c2ccccc2)nnc1NCCN1CCOCC1 [minaprine] | – | – | – | – | induced an elevation | no effect | no effect | – | significantly reduced cell growth and induced cell death | improved ATP production by oxidative phosphorylation | decreased the mitochondrial mass | – |
| CO[C@H]1C[C@@H]2CC[C@@H](C)[C@@](O)(O2)C(=O)C(=O)N2CCCC[C@H]2C(=O)O[C@H]([C@H](C)C[C@@H]2CC[C@@H](O)[C@H](OC)C2)CC(=O)[C@H](C)/C=C(\C)[C@@H](O)[C@@H](OC)C(=O)[C@H](C)C[C@H](C)/C=C/C=C/C=C/1C [rapamycin, reference compound] | – | – | – | – | – | – | – | – | – | – | – | > 1.4 |
